Laboratory results published in paper PMC5431190, “Investigation of cationicity and structure of pseudin-2 analogues for enhanced bacterial selectivity and anti-inflammatory activity” (Scientific Reports, 2017).
In brackets after ≈: the same amount, converted by molar mass. Read-outs that look alike come from different tables or passages of the source. Residues, ends and D or L forms follow the SMILES beside them.

B1: Ps-K18 (peptide)
peptide: GLNALKKVFQGIHEAIKKINNHVQ
notes: source: synthetic peptide (solid-phase, Fmoc; reversed-phase HPLC, purity >95%)
B2: Ps-K14-K18 (peptide)
peptide: GLNALKKVFQGIHKAIKKINNHVQ
notes: as for B1

Experiments:
[1] = test system: S. aureus 3089(R) (MRSA 3089); format: cell-based, Staphylococcus aureus; conditions: multidrug-resistant strain; 1% peptone media, 16 h at 37 °C
[2] = test system: S. aureus 3126(R) (MRSA 3126); format: cell-based, Staphylococcus aureus; conditions: multidrug-resistant strain; 1% peptone media, 16 h at 37 °C
[3] = test system: human red blood cells (hRBCs); test: Haemolytic activity; format: cell-based; conditions: for haemolysis at 400 μM: 400 μM peptide, 4% hRBCs, PBS, 100% = 0.1% Triton X-100
Protocol: Peptide-induced lysis of human red blood cells (hRBCs) was determined as follows. Fresh hRBCs were washed 2–3 times with phosphate-buffered saline (PBS) by centrifugation for 5 min at 2500 rpm at 4 °C. Peptides in PBS were incubated with 4% (v/v) hRBCs for 1 h at 37 °C. Samples were then centrifuged for 5 min at 1000 × g. The absorbance of the supernatant at 405 nm was used as a measure of haemolysis. As a positive control, 100% haemolysis was obtained by treating hRBCs with 0.1% Triton X-100.

[4] = test system: S. aureus 3108(R) (MRSA 3108); format: cell-based, Staphylococcus aureus; conditions: multidrug-resistant strain; 1% peptone media, 16 h at 37 °C
[5] = test system: Staphylococcus epidermidis KCTC 1917; format: cell-based
Text: (§1) Four Gram-negative bacteria species (Escherichia coli KCTC 1682, Acinetobacter baumannii KCTC 2508, Pseudomonas aeruginosa KCTC 1637 and Salmonella typhimurium KCTC 1926) and three Gram-positive bacteria species (Staphylococcus aureus KCTC 1621, Bacillus subtilis KCTC 3028 and Staphylococcus epidermidis KCTC 1917) were procured from the Korean Collection for Type Cultures (KCTC). Multi-drug-resistant Gram-negative bacteria (Salmonella typhimurium CCARM 8003 and 8007, Escherichia coli CCARM 1229 and 1238, Pseudomonas aeruginosa CCARM 2002 and 2095 and Acinetobacter baumannii CCARM 12035 and 12036) were obtained from the Culture Collection of Antibiotic-Resistant Microbes (CCARM). To determine MICs, bacteria were cultured in Luria-Bertani (LB) medium for overnight at 37 °C. An aliquot of the culture was incubated in 1% peptone media at 37 °C until mid-log phase. 100 μl of serial 2-fold diluted peptides were treated in 96 well plates and added to 100 μl of 2 × 10^6 CFU/ml bacterial suspensions in 1% peptone media for 16 h at 37 °C.

[6] = test system: Escherichia coli CCARM 1229 (MDREC 1229); format: cell-based; conditions: multidrug-resistant strain; 1% peptone media, 16 h at 37 °C
Text: as §1

[7] = test system: Salmonella typhimurium CCARM 8003 (MDRST 8003); format: cell-based; conditions: multidrug-resistant strain; 1% peptone media, 16 h at 37 °C
Text: as §1

[8] = test system: Gram-negative bacteria (E. coli, A. baumannii, P. aeruginosa, S. typhimurium); format: cell-based
Text: as §1

[9] = test system: Pseudomonas aeruginosa CCARM 2002 (MDRPA 2002); format: cell-based; conditions: multidrug-resistant strain; 1% peptone media, 16 h at 37 °C
Text: as §1

[10] = test system: Bacillus subtilis KCTC 3028; format: cell-based
Text: as §1

[11] = test system: Gram-positive bacteria (S. aureus, B. subtilis, S. epidermidis); format: cell-based
Text: as §1

[12] = test system: Salmonella typhimurium CCARM 8007 (MDRST 8007); format: cell-based; conditions: multidrug-resistant strain; 1% peptone media, 16 h at 37 °C
Text: as §1

[13] = test system: Pseudomonas aeruginosa KCTC 1637; format: cell-based
Text: as §1

[14] = test system: Acinetobacter baumannii KCTC 2508; format: cell-based
Text: as §1

[15] = test system: Acinetobacter baumannii CCARM 12036 (MDRAB 12036); format: cell-based; conditions: multidrug-resistant strain; 1% peptone media, 16 h at 37 °C
Text: as §1

[16] = test system: Escherichia coli CCARM 1238 (MDREC 1238); format: cell-based; conditions: multidrug-resistant strain; 1% peptone media, 16 h at 37 °C
Text: as §1

[17] = test system: Escherichia coli KCTC 1682; format: cell-based
Text: as §1

[18] = test system: Staphylococcus aureus KCTC 1621; format: cell-based
Text: as §1

[19] = test system: Pseudomonas aeruginosa CCARM 2095 (MDRPA 2095); format: cell-based; conditions: multidrug-resistant strain; 1% peptone media, 16 h at 37 °C
Text: as §1

[20] = test system: Salmonella typhimurium KCTC 1926; format: cell-based
Text: as §1

[21] = test system: Acinetobacter baumannii CCARM 12035 (MDRAB 12035); format: cell-based; conditions: multidrug-resistant strain; 1% peptone media, 16 h at 37 °C
Text: as §1

[22] = molecular target: T1, rhTLR4 (recombinant human Toll-like receptor 4) (human, UniProt O00206 24-631); test: BLI; BLItz system (ForteBio); rhTLR4 loaded on a Ni-NTA sensor, various amounts of peptide applied; biosensor hydrated 10 min in PBS; baseline 15 s, loading 60 s, baseline 30 s, association 60 s, dissociation 60 s; conditions: both partners purified
T1 construct: Toll-like receptor 4, recombinant human (rhTLR4), bought; No catalogue number is printed; source: bought: R&D systems, Minneapolis, USA
T1 sequence (O00206 24-631): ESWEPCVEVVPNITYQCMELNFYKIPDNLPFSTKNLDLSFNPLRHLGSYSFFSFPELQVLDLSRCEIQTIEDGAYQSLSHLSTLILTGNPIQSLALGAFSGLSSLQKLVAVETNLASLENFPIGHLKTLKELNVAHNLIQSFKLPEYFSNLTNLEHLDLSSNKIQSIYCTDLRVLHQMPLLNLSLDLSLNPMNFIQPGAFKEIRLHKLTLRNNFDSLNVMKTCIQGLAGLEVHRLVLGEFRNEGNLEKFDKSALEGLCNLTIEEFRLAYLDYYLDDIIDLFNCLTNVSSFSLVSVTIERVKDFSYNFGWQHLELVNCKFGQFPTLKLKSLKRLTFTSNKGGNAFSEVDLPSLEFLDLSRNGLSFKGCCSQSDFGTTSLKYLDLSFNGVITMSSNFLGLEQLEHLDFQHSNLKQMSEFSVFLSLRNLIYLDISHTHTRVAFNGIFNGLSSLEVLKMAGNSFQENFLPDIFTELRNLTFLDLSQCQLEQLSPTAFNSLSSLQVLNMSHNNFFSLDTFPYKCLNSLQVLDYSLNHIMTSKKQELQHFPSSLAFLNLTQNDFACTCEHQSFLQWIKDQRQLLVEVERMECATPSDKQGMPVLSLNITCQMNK

[23] = 4% (v/v) hRBCs in PBS, 1 h at 37 °C, absorbance 405 nm, printed in both Gram-negative and Gram-positive sections
[24] = standard strain KCTC 1917, 1% peptone media, 16 h at 37 °C, three independent experiments in triplicate, SD 14.0%
[25] = average over the four Gram-negative standard strains
[26] = standard strain KCTC 3028, 1% peptone media, 16 h at 37 °C, three independent experiments in triplicate, SD 14.0%
[27] = average over the three Gram-positive standard strains
[28] = standard strain KCTC 1637, 1% peptone media, 16 h at 37 °C, three independent experiments in triplicate, SD 14.0%
[29] = standard strain KCTC 2508, 1% peptone media, 16 h at 37 °C, three independent experiments in triplicate, SD 14.0%
[30] = standard strain KCTC 1682, 2-fold dilutions, 1% peptone media, 2 × 10^6 CFU/ml suspension, 16 h at 37 °C, three independent experiments in triplicate, SD 14.0%
[31] = standard strain KCTC 1621, 1% peptone media, 16 h at 37 °C, three independent experiments in triplicate, SD 14.0%
[32] = standard strain KCTC 1926, 1% peptone media, 16 h at 37 °C, three independent experiments in triplicate, SD 14.0%

Molecule | MIC, MRSA 3089 [1] | MIC, MRSA 3126 [2] | haemolysis at 400 μM ([3]; 1 h at 37 °C) | MHC (minimal peptide concentration that produces haemolysis) [3, 23] | MIC, MRSA 3108 [4] | MIC, S. epidermidis [5, 24] | MIC, MDREC 1229 [6] | MIC, MDRST 8003 [7] | Average MIC, Gram-negative [8, 25] | MIC, MDRPA 2002 [9] | MIC, B. subtilis [10, 26] | Average MIC, Gram-positive [11, 27] | MIC, MDRST 8007 [12] | MIC, P. aeruginosa [13, 28] | MIC, A. baumannii [14, 29] | MIC, MDRAB 12036 [15] | MIC, MDREC 1238 [16] | MIC, E. coli [17, 30] | MIC, MDRPA 2095 [19] | MIC, MDRAB 12035 [21] | other results
CC[C@H](C)[C@H](NC(=O)[C@H](C)NC(=O)[C@H](CCC(=O)O)NC(=O)[C@H](Cc1c[nH]cn1)NC(=O)[C@@H](NC(=O)[C@@H]1CCCN1C(=O)[C@H](CCC(N)=O)NC(=O)[C@H](Cc1ccccc1)NC(=O)[C@@H](NC(=O)[C@H](CCCCN)NC(=O)[C@H](CCCCN)NC(=O)[C@H](CC(C)C)NC(=O)[C@H](C)NC(=O)[C@H](CC(N)=O)NC(=O)[C@H](CC(C)C)NC(=O)CN)C(C)C)[C@@H](C)CC)C(=O)N[C@@H](CCCCN)C(=O)N[C@@H](CCCCN)C(=O)N[C@H](C(=O)N[C@@H](CC(N)=O)C(=O)N[C@@H](CC(N)=O)C(=O)N[C@@H](Cc1c[nH]cn1)C(=O)N[C@H](C(=O)N[C@@H](CCC(N)=O)C(=O)O)C(C)C)[C@@H](C)CC [Ps-K18-P] (H-GLNALKKVFQPIHEAIKKINNHVQ-OH) | 64 µM (≈ 175 µg/mL) | >64 µM | 0.1% | 400 µM | 64 µM (≈ 175 µg/mL) | 64 µM (≈ 175 µg/mL) | 32 µM (≈ 87.7 µg/mL) | 16 µM (≈ 43.8 µg/mL) | 14 µM | 16 µM (≈ 43.8 µg/mL) | 64 µM (≈ 175 µg/mL) | 64 µM | 16 µM (≈ 43.8 µg/mL) | 8 µM (≈ 21.9 µg/mL) | 16 µM (≈ 43.8 µg/mL) | 16 µM (≈ 43.8 µg/mL) | 16 µM (≈ 43.8 µg/mL) | 16 µM (≈ 43.8 µg/mL) | 16 µM (≈ 43.8 µg/mL) | 16 µM (≈ 43.8 µg/mL) | MIC, S. aureus [18, 31]: 64 µM (≈ 175 µg/mL); MIC, S. typhimurium [20, 32]: 16 µM (≈ 43.8 µg/mL)
CC[C@H](C)[C@H](NC(=O)CNC(=O)[C@H](CCC(N)=O)NC(=O)[C@H](Cc1ccccc1)NC(=O)[C@@H](NC(=O)[C@H](CCCCN)NC(=O)[C@H](CCCCN)NC(=O)[C@H](CC(C)C)NC(=O)[C@H](C)NC(=O)[C@H](CC(N)=O)NC(=O)[C@H](CC(C)C)NC(=O)CN)C(C)C)C(=O)N[C@@H](Cc1c[nH]cn1)C(=O)N[C@@H](CCC(=O)O)C(=O)N[C@@H](C)C(=O)N[C@H](C(=O)N[C@@H](CCCCN)C(=O)N[C@@H](CCCCN)C(=O)N[C@H](C(=O)N[C@@H](CC(N)=O)C(=O)N[C@@H](CC(N)=O)C(=O)N[C@@H](Cc1c[nH]cn1)C(=O)N[C@H](C(=O)N[C@@H](CCC(N)=O)C(=O)O)C(C)C)[C@@H](C)CC)[C@@H](C)CC [Ps-K18] (H-GLNALKKVFQGIHEAIKKINNHVQ-OH) | 16 µM (≈ 43.2 µg/mL) | 16 µM (≈ 43.2 µg/mL) | – | – | 32 µM (≈ 86.4 µg/mL) | – | 4 µM (≈ 10.8 µg/mL) | 4 µM (≈ 10.8 µg/mL) | – | 2 µM (≈ 5.4 µg/mL) | – | – | 4 µM (≈ 10.8 µg/mL) | – | – | 4 µM (≈ 10.8 µg/mL) | 2 µM (≈ 5.4 µg/mL) | – | 2 µM (≈ 5.4 µg/mL) | 4 µM (≈ 10.8 µg/mL) | MHC (minimal peptide concentration that produces haemolysis) ([3]; red cells of human, 1 h): 100 µM; haemolysis at 100 μM ([3]; red cells of human, 1 h, 100): 0.5%; MIC, S. epidermidis ([5]; KCTC 1917, 16 h): 8 µM (≈ 21.6 µg/mL); Average MIC, Gram-negative ([8]; 16 h): 2.5 µM; MIC, B. subtilis ([10]; KCTC 3028, 16 h): 8 µM (≈ 21.6 µg/mL); Average MIC, Gram-positive ([11]; 16 h): 10.67 µM; MIC, P. aeruginosa ([13]; KCTC 1637, 16 h): 2 µM (≈ 5.4 µg/mL); MIC, A. baumannii ([14]; KCTC 2508, 16 h): 2 µM (≈ 5.4 µg/mL); MIC, E. coli ([17]; KCTC 1682, 16 h): 2 µM (≈ 5.4 µg/mL); MIC, S. aureus ([18]; KCTC 1621, 16 h): 16 µM (≈ 43.2 µg/mL); MIC, S. typhimurium ([20]; KCTC 1926, 16 h): 4 µM (≈ 10.8 µg/mL)
CC[C@H](C)[C@H](NC(=O)[C@H](C)NC(=O)[C@H](CCCCN)NC(=O)[C@H](Cc1c[nH]cn1)NC(=O)[C@@H](NC(=O)[C@@H]1CCCN1C(=O)[C@H](CCC(N)=O)NC(=O)[C@H](Cc1ccccc1)NC(=O)[C@@H](NC(=O)[C@H](CCCCN)NC(=O)[C@H](CCCCN)NC(=O)[C@H](CC(C)C)NC(=O)[C@H](C)NC(=O)[C@H](CC(N)=O)NC(=O)[C@H](CC(C)C)NC(=O)CN)C(C)C)[C@@H](C)CC)C(=O)N[C@@H](CCCCN)C(=O)N[C@@H](CCCCN)C(=O)N[C@H](C(=O)N[C@@H](CC(N)=O)C(=O)N[C@@H](CC(N)=O)C(=O)N[C@@H](Cc1c[nH]cn1)C(=O)N[C@H](C(=O)N[C@@H](CCC(N)=O)C(=O)O)C(C)C)[C@@H](C)CC [Ps-K14-K18-P] (H-GLNALKKVFQPIHKAIKKINNHVQ-OH) | 32 µM (≈ 87.7 µg/mL) | 64 µM (≈ 175 µg/mL) | 0.3% | 400 µM | 32 µM (≈ 87.7 µg/mL) | 64 µM (≈ 175 µg/mL) | 8 µM (≈ 21.9 µg/mL) | 16 µM (≈ 43.8 µg/mL) | 7 µM | 16 µM (≈ 43.8 µg/mL) | 32 µM (≈ 87.7 µg/mL) | 42.67 µM | 16 µM (≈ 43.8 µg/mL) | 8 µM (≈ 21.9 µg/mL) | 8 µM (≈ 21.9 µg/mL) | 8 µM (≈ 21.9 µg/mL) | 8 µM (≈ 21.9 µg/mL) | 4 µM (≈ 11 µg/mL) | 16 µM (≈ 43.8 µg/mL) | 16 µM (≈ 43.8 µg/mL) | MIC, S. aureus [18, 31]: 32 µM (≈ 87.7 µg/mL); MIC, S. typhimurium [20, 32]: 8 µM (≈ 21.9 µg/mL)
B1 | – | – | – | – | – | – | – | – | – | – | – | – | – | – | – | – | – | – | – | – | Kd [22]: 1.5 µM
B2 | – | – | – | – | – | – | – | – | – | – | – | – | – | – | – | – | – | – | – | – | Kd [22]: 6.9 µM
